In PubChem BioAssay AID2060601 (Molecular Pharmacology Branch, DTP, NCI, 2025):
Values joined by “and” are separate entries in the source; they are usually repeats but may differ in a detail not shown here. Equal entries are not always repeated. Blank lines part the entries; values can stand above or below the molecule they belong to.

Test system: 874868-142-R-J2-PDC complex spheroids, growth % test/control
Assay: Anticancer human tumor 874868-142-R-J2-PDC patient-derived head and neck squamous carcinoma cell line growth inhibition [CLK]
Settings: for viability, T/C: stronger effect = lower value
Outline: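 Multi-cell-type spheroids combined patient-derived tumor cells with HUVEC endothelial cells and human mesenchymal stem cells. Paired agents were dosed in half-log steps down from about clinical Cmax, or from 10 microM where Cmax was unknown.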

[1] = curve of first compound, second compound 0.0316 µM
[2] = curve of first compound, second compound 0.1 µM
[3] = curve of first compound, second compound 0.316 µM
[4] = curve of first compound, second compound 1 µM
[5] = curve of first compound, second compound 3.16 µM
[6] = curve of first compound, second compound 10 µM
[7] = second compound 0.0316 µM, first compound 0.0316 µM
[8] = second compound 0.0316 µM, first compound 0.1 µM
[9] = second compound 0.0316 µM, first compound 0.316 µM
[10] = second compound 0.0316 µM, first compound 1 µM
[11] = second compound 0.0316 µM, first compound 3.16 µM
[12] = second compound 0.0316 µM, first compound 10 µM
[13] = second compound 0.1 µM, first compound 0.0316 µM
[14] = second compound 0.1 µM, first compound 0.1 µM
[15] = second compound 0.1 µM, first compound 0.316 µM
[16] = second compound 0.1 µM, first compound 1 µM
[17] = second compound 0.1 µM, first compound 3.16 µM
[18] = second compound 0.1 µM, first compound 10 µM
[19] = second compound 0.316 µM, first compound 0.0316 µM
[20] = second compound 0.316 µM, first compound 0.1 µM
[21] = second compound 0.316 µM, first compound 0.316 µM
[22] = second compound 0.316 µM, first compound 1 µM
[23] = second compound 0.316 µM, first compound 3.16 µM
[24] = second compound 0.316 µM, first compound 10 µM
[25] = second compound 1 µM, first compound 0.0316 µM
[26] = second compound 1 µM, first compound 0.1 µM
[27] = second compound 1 µM, first compound 0.316 µM
[28] = second compound 1 µM, first compound 1 µM
[29] = second compound 1 µM, first compound 3.16 µM
[30] = second compound 1 µM, first compound 10 µM
[31] = second compound 3.16 µM, first compound 0.0316 µM
[32] = second compound 3.16 µM, first compound 0.1 µM
[33] = second compound 3.16 µM, first compound 0.316 µM
[34] = second compound 3.16 µM, first compound 1 µM
[35] = second compound 3.16 µM, first compound 3.16 µM
[36] = second compound 3.16 µM, first compound 10 µM
[37] = second compound 10 µM, first compound 0.0316 µM
[38] = second compound 10 µM, first compound 0.1 µM
[39] = second compound 10 µM, first compound 0.316 µM
[40] = second compound 10 µM, first compound 1 µM
[41] = second compound 10 µM, first compound 3.16 µM
[42] = second compound 10 µM, first compound 10 µM
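Also: spheroids exposed to the compounds for 7 days.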
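For viability, T/C in this document: 100% = DMSO vehicle control viability.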

IC50 (curve of compound): 1640 nM and 2160 nM
SMILES: CC1COCCN1c1cc(C2(S(C)(=N)=O)CC2)nc(-c2ccnc3[nH]ccc23)n1 (stereo not drawn)
viability, T/C (compound 0.0316 µM): 93.5% and 84.9%
viability, T/C (compound 0.1 µM): 91.8% and 114%
viability, T/C (compound 0.316 µM): 82.2% and 76%
viability, T/C (compound 1 µM): 63.7% and 61.2%
viability, T/C (compound 3.16 µM): 32.2% and 49%
viability, T/C (compound 10 µM): 28.2% and 38.6%

IC50 [1]: 6560 nM
IC50 [2]: 862 nM
IC50 [3]: 89.5 nM
IC50 [4]: < 31.6 nM
IC50 [5]: < 31.6 nM
IC50 [6]: < 31.6 nM
SMILES: C#Cc1c(F)ccc2cc(O)cc(-c3ncc4c(N5CC6CCC(C5)N6)nc(OCC56CCCN5CC(F)C6)nc4c3F)c12 (stereo not drawn) + CNC(=O)c1ccc(Nc2nc(OC3CCCC3)c3c(-c4ccc5nc(C)oc5c4)c[nH]c3n2)c(OC)c1
viability, T/C [7]: 92.7%
viability, T/C [8]: 75.7%
viability, T/C [9]: 80.7%
viability, T/C [10]: 65%
viability, T/C [11]: 54.3%
viability, T/C [12]: 47.1%
viability, T/C [13]: 72.5%
viability, T/C [14]: 84.5%
viability, T/C [15]: 66.5%
viability, T/C [16]: 48.4%
viability, T/C [17]: 51%
viability, T/C [18]: 43.3%
viability, T/C [19]: 58.1%
viability, T/C [20]: 48.5%
viability, T/C [21]: 44.2%
viability, T/C [22]: 43%
viability, T/C [23]: 39.8%
viability, T/C [24]: 39%
viability, T/C [25]: 41.6%
viability, T/C [26]: 39.4%
viability, T/C [27]: 36.5%
viability, T/C [28]: 35.2%
viability, T/C [29]: 35.1%
viability, T/C [30]: 31.6%
viability, T/C [31]: 37.1%
viability, T/C [32]: 37.8%
viability, T/C [33]: 31.1%
viability, T/C [34]: 30%
viability, T/C [35]: 30.5%
viability, T/C [36]: 33.8%
viability, T/C [37]: 35.8%
viability, T/C [38]: 37.4%
viability, T/C [39]: 33.9%
viability, T/C [40]: 32.6%
viability, T/C [41]: 32.4%
viability, T/C [42]: 26.8%

IC50 (curve of compound): 756 nM and 631 nM
SMILES: COC1C=CCC(C)C(C)S(=O)(=O)NC(=O)c2ccc3c(c2)N(CC2CCC21)CC1(CCCc2cc(Cl)ccc21)CO3 (stereo not drawn)
viability, T/C (compound 0.0316 µM): 103% and 104%
viability, T/C (compound 0.1 µM): 72.9% and 83.5%
viability, T/C (compound 0.316 µM): 65.5% and 53.1%
viability, T/C (compound 1 µM): 50.5% and 46.5%
viability, T/C (compound 3.16 µM): 25.1% and 30.6%
viability, T/C (compound 10 µM): 12.7% and 13.8%

IC50 [1]: > 10000 nM
IC50 [2]: > 10000 nM
IC50 [3]: > 10000 nM
IC50 [4]: < 31.6 nM
IC50 [5]: < 31.6 nM
IC50 [6]: < 31.6 nM
SMILES: CC(CO)NC(=O)c1cc(-c2ccc(Cl)cc2)nn(-c2cnn(C)c2)c1=O (stereo not drawn) + CNC(=O)c1ccc(Nc2nc(OC3CCCC3)c3c(-c4ccc5nc(C)oc5c4)c[nH]c3n2)c(OC)c1
viability, T/C [7]: 98%
viability, T/C [8]: 90.1%
viability, T/C [9]: 90.2%
viability, T/C [10]: 120%
viability, T/C [11]: 125%
viability, T/C [12]: 104%
viability, T/C [13]: 82.2%
viability, T/C [14]: 90%
viability, T/C [15]: 82.6%
viability, T/C [16]: 85.9%
viability, T/C [17]: 94.8%
viability, T/C [18]: 109%
viability, T/C [19]: 50.6%
viability, T/C [20]: 51.4%
viability, T/C [21]: 56.2%
viability, T/C [22]: 48.5%
viability, T/C [23]: 58.5%
viability, T/C [24]: 67.4%
viability, T/C [25]: 52.4%
viability, T/C [26]: 38.1%
viability, T/C [27]: 34.9%
viability, T/C [28]: 43.1%
viability, T/C [29]: 50.8%
viability, T/C [30]: 50.7%
viability, T/C [31]: 40.3%
viability, T/C [32]: 36.8%
viability, T/C [33]: 44.3%
viability, T/C [34]: 41.2%
viability, T/C [35]: 52.4%
viability, T/C [36]: 44.4%
viability, T/C [37]: 34.7%
viability, T/C [38]: 36.4%
viability, T/C [39]: 36.1%
viability, T/C [40]: 33.7%
viability, T/C [41]: 50.9%
viability, T/C [42]: 42.2%
